Reference: patent US9415047B2, “Use of benzo five-membered nitrogen heterocyclic piperazine or piperidine derivatives” (Liaoning Emmy Biological Pharmaceutical Co., Ltd., priority 2012, dated 2016)
pEC50: −log10 of the molar value.

Experiments:
[1] = system: AD constricted rabbit aorta; test: Relaxing effects on vascular smooth muscle constricted by adrenaline hydrochloride (AD) in vitro; settings: Oryctolagus cuniculus; relaxation of rabbit aorta constricted by adrenaline (10^−5 mol/L); mean±SEM, n=5
Description: Adrenaline hydrochloride (AD) (10^−5 mol/L) was added into a bath tube to induce constriction, when maximal constriction was achieved, the sample was completely flushed, K-H solution was changed for every 20 min. Contents in the tube was balanced for 60 min, when baseline recovered to be stable, the […] was added at the same concentration to induce constriction. When the later maximal constriction response was basically consistent with the former one, the prepared compound solutions were subsequently added, including compound II-1 to II-60 solutions (1×10^−8-1×10^−3 mol/L), compound II-84 to II-123 solutions (1×10^−10-1×10^−2 mol/L) and compound II-124 to II-157 solutions (1×10^−10˜1×10^−3 mol/L), to record the waveforms. Relaxing percentage of the compound was used as Y axis, maximal relaxation response was 100%, negative logarithm of different concentration was used as X axis, to draw dose effect curve (expressed in mean±SEM ( ? ), n=5). Compounds II-2 and II-3 had the most obvious relaxing effects (FIG. 1 and FIG. 8).

[2] = system: high kalium concentration constricted rabbit aorta; test: Relaxing effects on vascular smooth muscle constricted by high kalium concentration in vitro; settings: Oryctolagus cuniculus, relaxation of rabbit aorta constricted by high kalium solution (K+ 60 mmol/L); mean±SEM, n=5
Description: (§1) Adrenaline hydrochloride (AD) (10^−5 mol/L) was added into a bath tube to induce constriction, when maximal constriction was achieved, the sample was completely flushed, K-H solution was changed for every 20 min. Contents in the tube was balanced for 60 min, when baseline recovered to be stable, K-H solution in the bath tube was replaced with high kalium concentration solution to induce constriction. When the later maximal constriction response was basically consistent with the former one, the prepared compound solutions were subsequently added, including compound II-1 to II-60 solutions (1×10^−8-1×10^−3 mol/L), compound II-84 to II-123 solutions (1×10^−10-1×10^−2 mol/L) and compound II-124 to II-157 solutions (1×10^−10-1×10^−3 mol/L), to record the waveforms. Relaxing percentage of the compound was used as Y axis, maximal relaxation response was 100%, negative logarithm of different concentration was used as X axis, to draw dose effect curve (expressed in mean±SEM ( ? ), n=5). Compounds II-2 and II-3 had the most obvious relaxing effects (FIG. 2 and FIG. 9).

[3] = system: NA constricted rabbit aorta; test: Relaxing effects on vascular smooth muscle constricted by noradrenaline (NA) in vitro; settings: relaxation of rabbit aorta constricted by noradrenaline (10^−5 mol/L), mean±SEM, n=5; for pEC50: Oryctolagus cuniculus
Description: as §1, with “noradrenaline bitartrate (NA) (10^−5 mol/L)” for “K-H solution in the bath tube”, “added” for “replaced with high kalium concentration solution”, “compound” for “compound II-1 to II-60 solutions (1×10^−8-1×10^−3 mol/L), compound”, “mol/L),” for “mol/L) and”, “n=5).” for “n=5). Compounds II-2 and II-3 had the most obvious relaxing effects (FIG. 2 and FIG. 9).”

c1coc(N2CCN(CCCCn3nnc4ccccc43)CC2)c1 [II-43, 1-(4-(4-(2-furyl)piperazine-1-yl)butyl)-1H-benzotriazole]
pEC50 [1]: 4.45
pEC50 [2]: 3.85

c1ccc2c(c1)nnn2CCCCN1CCN(c2ccncc2)CC1 [II-44, 1-(4-(4-(4-pyridyl)piperazine-1-yl)butyl)-1H-benzotriazole]
pEC50 [1]: 4.15
pEC50 [2]: 3.73

c1cnc(N2CCN(CCCCn3nnc4ccccc43)CC2)nc1 [II-45, 1-(4-(4-(2-pyrimidinyl)piperazine-1-yl)butyl)-1H-benzotriazole]
pEC50 [1]: 4.33
pEC50 [2]: 4.09

c1ccc2c(c1)nnn2CCCCN1CCN(C2CCCCC2)CC1 [II-46, 1-(4-(4-cyclohexylpiperazine-1-yl)butyl)-1H-benzotriazole]
pEC50 [1]: 4.26
pEC50 [2]: 3.92

c1ccc2c(N3CCN(CCCCn4nnc5ccccc54)CC3)cccc2c1 [II-47, 1-(4-(4-(1-naphthyl)piperazine-1-yl)butyl)-1H-benzotriazole]
pEC50 [1]: 3.88
pEC50 [2]: 3.54

c1ccc2nc(N3CCN(CCCCn4nnc5ccccc54)CC3)cnc2c1 [II-48, 1-(4-(4-(2-quinoxalinyl)piperazine-1-yl)butyl)-1H-benzotriazole]
pEC50 [1]: 3.83
pEC50 [2]: 3.43

Fc1ccc2c(N3CCN(CCCCn4nnc5ccccc54)CC3)nsc2c1 [II-49, 1-(4-(4-(3-(6-fluorobenzisothiazolyl))piperazine-1-yl)butyl)-1H-benzotriazole]
pEC50 [1]: 4.05
pEC50 [2]: 3.85

Fc1ccc2c(N3CCN(CCCn4nnc5ccccc54)CC3)coc2c1 [II-51, 1-(3-(4-(3-(6-fluorobenzofuranyl))piperazine-1-yl)propyl)-1H-benzotriazole]
pEC50 [1]: 4.52
pEC50 [2]: 4.46

Fc1ccc2c(N3CCN(CCCOn4nnc5ccc(F)cc54)CC3)nsc2c1 [II-53, 6-fluoro-1-(4-(4-(3-(6-fluoro-benzisothiazolyl))piperazine-1-yl)propoxyl)-1H-benzotriazole]
pEC50 [1]: 4.28
pEC50 [2]: 3.88

FC(F)(F)c1cccc(N2CCN(CCCCn3nnc4ccc(Cl)cc43)CC2)c1 [II-54, 6-chloro-1-(4-(4-(3-trifluoromethylphenyl)piperazine-1-yl)butyl)-1H-benzotriazole]
pEC50 [1]: 5.21
pEC50 [2]: 4.91

N#Cc1ccc2nnn(CCCCN3CCN(c4cccc(C(F)(F)F)c4)CC3)c2c1 [II-55, 6-cyano-1-(4-(4-(3-trifluoromethylphenyl)piperazine-1-yl)butyl)-1H-benzotriazole]
pEC50 [1]: 4.01
pEC50 [2]: 3.71

COC(=O)c1ccc2nnn(CCCCN3CCN(c4cccc(C(F)(F)F)c4)CC3)c2c1 [II-56, 6-methoxycarbonyl-1-(4-(4-(3-trifluoromethylphenyl)piperazine-1-yl)butyl)-1H-benzotriazole]
pEC50 [1]: 4.26
pEC50 [2]: 3.51

FC(F)(F)c1cccc(N2CCN(CCCCn3ccc4ccccc43)CC2)c1 [II-57, 1-(4-(4-(3-trifluoromethylphenyl)piperazine-1-yl)butyl)-1H-indole]
pEC50 [1]: 4.21
pEC50 [2]: 3.58

N#Cc1ccc2ccn(CCCCN3CCN(c4cccc(Cl)c4)CC3)c2c1 [II-58, 6-cyano-1-(4-(4-(3-chlorophenyl)piperazine-1-yl)butyl)-1H-indole]
pEC50 [1]: 4.17
pEC50 [2]: 3.75

FC(F)(F)c1cccc(N2CCN(CCCn3ncc4ccccc43)CC2)c1 [II-59, 1-(3-(4-(3-trifluoromethylphenyl)piperazine-1-yl)propyl)-1H-benzopyrazole]
pEC50 [1]: 4.53
pEC50 [2]: 4.21

N#Cc1ccc2cnn(CCCN3CCN(c4cccc(Cl)c4Cl)CC3)c2c1 [II-60]
pEC50 [1]: 4.05
pEC50 [2]: 3.81

Fc1ccc2c(C3CCN(CCn4nnc5ccccc54)CC3)noc2c1 [II-94, N-(2-(1-benzotriazolyl)ethyl)-4-(3-(6-fluorobenzisoxazolyl))piperidine]
pEC50 [3]: 5.81

Fc1ccc2c(C3CCN(CCCCn4nnc5ccccc54)CC3)noc2c1 [II-95, N-(4-(1-benzotriazolyl)butyl)-4-(3-(6-fluorobenzisoxazolyl))piperidine]
pEC50 [3]: 5.73

N#Cc1ccc2nnn(CCCCN3CCC(c4noc5cc(F)ccc45)CC3)c2c1 [II-96, N-(4-(6-cyanobenzotriazolyl)butyl)-4-(3-(6-fluorobenzisoxazolyl))piperidine]
pEC50 [3]: 5.31

COc1ccc2nnn(CCCN3CCC(c4nsc5cc(F)ccc45)CC3)c2c1 [II-100]
pEC50 [3]: 4.19

COc1ccc2nnn(CCCN3CCC(c4n[nH]c5cc(F)ccc45)CC3)c2c1 [II-101]
pEC50 [3]: 4.43

Clc1cccc(C2CCN(CCCCn3cnc4ccccc43)CC2)c1 [II-124, N-(4-(1H-benzimidazoyl-1-yl)butyl)-4-(3-chlorophenyl)piperidine]
pEC50 [1]: 5.03
−logEC50 [3]: 5.11 ± 0.02

Clc1cccc(C2CCN(CCCCn3nnc4ccccc43)CC2)c1 [II-125, N-(4-(1H-benzotriazole-1-yl)butyl)-4-(3-chlorophenyl)piperidine]
pEC50 [1]: 5.16
−logEC50 [3]: 5.27 ± 0.03

FC(F)(F)c1cccc(C2CCN(CCCCn3cnc4ccccc43)CC2)c1 [II-126, N-(4-(1H-benzimidazoyl-1-yl)butyl)-4-(3-trifluoromethylphenyl)piperidine]
pEC50 [1]: 6.21
−logEC50 [3]: 6.32 ± 0.04

FC(F)(F)c1cccc(C2CCN(CCCCn3nnc4ccccc43)CC2)c1 [II-127, N-(4-(1H-benzotriazole-1-yl)butyl)-4-(3-trifluoromethylphenyl)piperidine]
pEC50 [1]: 6.36
−logEC50 [3]: 6.45 ± 0.03

Fc1cccc(C2CCN(CCCCn3cnc4ccccc43)CC2)c1 [II-128, N-(4-(1H-benzimidazoyl-1-yl)butyl)-4-(3-fluorophenyl)piperidine]
pEC50 [1]: 4.89
−logEC50 [3]: 4.67 ± 0.02

COc1ccccc1C1CCN(CCCCn2cnc3ccccc32)CC1 [II-129, N-(4-(1H-benzimidazoyl-1-yl)butyl)-4-(2-methoxylphenyl)piperidine]
pEC50 [1]: 4.76
−logEC50 [3]: 4.55 ± 0.03

Fc1ccc2nnn(CCCCN3CCC(c4cccc(C(F)(F)F)c4)CC3)c2c1 [II-130, N-(4-(6-fluoro-1H-benzotriazole-1-yl)butyl)-4-(3-trifluoromethylphenyl)piperidine]
pEC50 [1]: 5.31
−logEC50 [3]: 5.21 ± 0.04

COc1ccc2nnn(CCCCN3CCC(c4cccc(C(F)(F)F)c4)CC3)c2c1 [II-131, N-(4-(6-methoxyl-1H-benzotriazole-1-yl)butyl)-4-(3-trifluoromethylphenyl)piperidine]
pEC50 [1]: 4.86
−logEC50 [3]: 4.77 ± 0.03

N#Cc1ccc2nnn(CCCCN3CCC(c4cccc(C(F)(F)F)c4)CC3)c2c1 [II-132, N-(4-(6-cyano-1H-benzotriazole-1-yl)butyl)-4-(3-trifluoromethylphenyl)piperidine]
pEC50 [1]: 4.79
−logEC50 [3]: 4.53 ± 0.02

Fc1ccc2c(C3CCN(CCn4nnc5ccccc54)CC3)noc2c1 [II-143, N-(2-(1-benzotriazolyl)ethyl)-4-(3-(6-fluorobenzisoxazolyl))piperidine]
pEC50 [1]: 5.92
pEC50 [2]: 3.92

Fc1ccc2c(C3CCN(CCCCn4nnc5ccccc54)CC3)noc2c1 [II-144, N-(4-(1-benzotriazolyl)butyl)-4-(3-(6-fluorobenzisoxazolyl))piperidine]
pEC50 [1]: 5.96
pEC50 [2]: 3.96

N#Cc1ccc2nnn(CCCCN3CCC(c4noc5cc(F)ccc45)CC3)c2c1 [II-145, N-(4-(6-cyanobenzotriazolyl)butyl)-4-(3-(6-fluorobenzisoxazolyl))piperidine]
pEC50 [1]: 5.53
pEC50 [2]: 3.53

COc1ccc2nnn(CCCN3CCC(c4nsc5cc(F)ccc45)CC3)c2c1 [II-149, N-(3-(6-methoxylbenzotriazolyl)propyl)-4-(3-(6-fluorobenzisothiazolyl))piperidine]
pEC50 [1]: 4.01
pEC50 [2]: 3.31

COc1ccc2nnn(CCCN3CCC(c4n[nH]c5cc(F)ccc45)CC3)c2c1 [II-150, N-(3-(6-methoxylbenzotriazolyl)propyl)-4-(3-(6-fluorobenzopyrazol))piperidine]
pEC50 [1]: 4.13
pEC50 [2]: 3.63
